pIC50: −log10 of the molar value. Numbered stars: 1 amine (or outer) side, 2 acyl side, 3 side chain; on linkers, the order of the positions; unused ones are H or OH. Bridge positions count the residues as written; N and C are the ends. Square brackets hold non-standard residues; d marks the D form. Peptide text beside a SMILES is read from it. ξ: configuration not given here. X4 = C/C=C(\C)[C@@H](N[*:1])[C@@H](C)[C@H](O)C/C=C(\C)C(=O)O[C@H](CC(C)C)C(=O)[*:2]; X10 = C/C(=C\CCCCO[*:2])C(=O)[*:1]; X11 = C/C(=C\CCO[*:2])C(=O)[*:1]; X9 = C/C(=C\CCCO[*:2])C(=O)[*:1]; dNMeF = CN[C@H](Cc1ccccc1)C(=O)O; Ile(3ξ) = CCC(C)[C@H](N)C(=O)O; dHica = CC(C)C[C@@H](O)C(=O)O; NMeA = CN[C@@H](C)C(=O)O; dNMeA = CN[C@H](C)C(=O)O; Sar = CNCC(=O)O
Tests used:
[1] = test system: BT-474 human mammary gland ductal carcinoma cells; assay: Inhibitory response of test compounds against BT-474 cells (Cell Titer-Glo, 72 h); format: cell-based; settings: Homo sapiens
Method: (§1) BT-474 human mammary gland ductal carcinoma cells were seeded in a clear polystyrene 96-well microculture plate (Corning® Costar® 96-well flat bottom plate, Cat.#3997) in a total volume of 90 μL/well. After 24 hours of incubation in a humidified incubator at 37° C. with 5% CO2 and 95% air, 10 μL of 10×, serially diluted test agents in growth medium were added to each well (10 pt dose response curve, highest concentration 10 μM of test agent). After 72 hours of culture in a humidified incubator at 37° C., in an atmosphere of 5% CO2 and 95% air, the plated cells and Cell Titer-Glo® (Promega G7571) reagents were brought to room temperature to equilibrate for 30 minutes. 100 μL of Cell Titer-Glo® reagent was added to each well. The plate was shaken for two minutes and then left to equilibrate for ten minutes. The media/Cell Titer-Glo® reagent was transferred to a white polystyrene 96-well microculture plate (Corning® Costar® 96-well flat bottom plate, Cat.#3917) before reading luminescence on a Tecan GENios microplate reader.
(§2) Percent inhibition of cell growth was calculated relative to untreated control wells. The IC50 value for the test agents was determined using Prism 6.05 by curve-fitting of the data using the following four parameter-logistic equation:
(§3) [formula] where Top is the maximal % of control absorbance, Bottom is the minimal % of control absorbance at the highest agent concentration, Y is the % of control absorbance, X is the agent concentration, IC50 is the concentration of agent that inhibits cell growth by 50% compared to the control cells, and n is the slope of the curve.

HCC1954 cells = assay: Inhibitory response of test compounds against HCC1954 cells (method analogous to BT-474); format: cell-based; settings: Homo sapiens
Method: as §1, §2, §3
Inhibitory response of test compounds against HCC1954 cells was determined using a method analogous to that used for BT-474 cells.

Structure (SMILES)	pIC50 [1]	other results
CCC(C)[C@@H]1NC(=O)CN(C)C(=O)[C@@H](Cc2ccccc2)N(C)C(=O)[C@H](C)NC(=O)[C@@H](CC(C)C)OC(=O)/C(C)=C/CCCOC(=O)[C@H](C)NC1=O (some centres unmarked) [Compound 4] ([dHica]A[dNMeF][Sar][Ile(3ξ)]A; linker N-C via X9)	< 5.00	
CCC(C)[C@@H]1NC(=O)CN(C)C(=O)[C@@H](Cc2ccccc2)N(C)C(=O)[C@H](C)NC(=O)[C@@H](CC(C)C)OC(=O)/C(C)=C/CCCOC(=O)[C@@H](C)NC1=O (some centres unmarked) [Compound 5] ([dHica]A[dNMeF][Sar][Ile(3ξ)][dA]; linker N-C via X9)	< 5.00	
CCC(C)[C@@H]1NC(=O)CN(C)C(=O)[C@@H](Cc2ccccc2)N(C)C(=O)[C@H](C)NC(=O)[C@@H](CC(C)C)OC(=O)/C(C)=C/CCCOC(=O)[C@H](C)N(C)C1=O (some centres unmarked) [Compound 9] ([dHica]A[dNMeF][Sar][Ile(3ξ)][NMeA]; linker N-C via X9)	< 5.00	
CCC(C)[C@@H]1NC(=O)CN(C)C(=O)[C@@H](Cc2ccccc2)N(C)C(=O)[C@H](C)NC(=O)[C@@H](CC(C)C)OC(=O)/C(C)=C/CCCOC(=O)[C@@H](C)N(C)C1=O (some centres unmarked) [Compound 10] ([dHica]A[dNMeF][Sar][Ile(3ξ)][dNMeA]; linker N-C via X9)	< 5.00	
CCC(C)[C@@H]1NC(=O)CN(C)C(=O)[C@@H](Cc2ccccc2)N(C)C(=O)[C@H](C)NC(=O)[C@@H](CC(C)C)OC(=O)/C(C)=C/CCCOC(=O)[C@H](CCCCNC(=O)OC(C)(C)C)NC1=O (some centres unmarked) [Compound 11]	< 5.00	
CCC(C)[C@@H]1NC(=O)CN(C)C(=O)[C@@H](Cc2ccccc2)N(C)C(=O)[C@H](C)NC(=O)[C@@H](CC(C)C)OC(=O)/C(C)=C/CCOC(=O)[C@@H](C)NC1=O (some centres unmarked) [Compound 12] ([dHica]A[dNMeF][Sar][Ile(3ξ)][dA]; linker N-C via X11)	< 5.00	
CCC(C)[C@@H]1NC(=O)CN(C)C(=O)[C@@H](Cc2ccccc2)N(C)C(=O)[C@H](C)NC(=O)[C@@H](CC(C)C)OC(=O)/C(C)=C/CCCCOC(=O)[C@@H](C)NC1=O (some centres unmarked) [Compound 13] ([dHica]A[dNMeF][Sar][Ile(3ξ)][dA]; linker N-C via X10)	< 5.00	
CCC(C)[C@@H]1NC(=O)CN(C)C(=O)[C@@H](Cc2ccccc2)N(C)C(=O)[C@H](C)NC(=O)[C@@H](CC(C)C)OC(=O)/C(C)=C/CCCCOC(=O)[C@@H](C)N(C)C1=O (some centres unmarked) [Compound 14] ([dHica]A[dNMeF][Sar][Ile(3ξ)][dNMeA]; linker N-C via X10)	< 5.00	
CCC(C)[C@@H]1NC(=O)CN(C)C(=O)[C@@H](Cc2ccccc2)N(C)C(=O)[C@H](C)NC(=O)[C@@H](CC(C)C)OC(=O)/C(C)=C/CCCCOC(=O)[C@H](C)NC1=O (some centres unmarked) [Compound 17] ([dHica]A[dNMeF][Sar][Ile(3ξ)]A; linker N-C via X10)	5.00 to 6.70	
C/C=C(\C)[C@H]1NC(=O)[C@@H](C)NC(=O)[C@H](C(C)CC)NC(=O)CN(C)C(=O)[C@@H](Cc2ccccc2)N(C)C(=O)[C@H](C)NC(=O)[C@@H](CC(C)C)OC(=O)/C(C)=C/C[C@@H](O)[C@@H]1C (some centres unmarked) [Compound 19] (cyclo(A[dNMeF][Sar][Ile(3ξ)][dA][X4]))	< 5.00	pIC50 ([1]; 72 h, Cell Titer-Glo, highest concentration 10 μM): < 5.00
C/C=C(\C)[C@H]1OC(=O)[C@@H](C)NC(=O)[C@H](C(C)CC)NC(=O)CN(C)C(=O)[C@@H](Cc2ccccc2)N(C)C(=O)[C@H](C)NC(=O)[C@@H](CC(C)C)OC(=O)/C(C)=C/C[C@H](O)[C@H]1C (some centres unmarked) [Compound 20]	5.00 to 6.70	pIC50 ([1]; 72 h, Cell Titer-Glo): 6.41
C/C=C(\C)[C@H]1OC(=O)[C@@H](C)NC(=O)[C@H](C(C)CC)NC(=O)CN(C)C(=O)[C@@H](Cc2ccc(Cl)cc2)N(C)C(=O)[C@H](C)NC(=O)[C@@H](CC(C)C)OC(=O)/C(C)=C/C[C@H](O)[C@@H]1C (some centres unmarked) [Compound 21]	> 7.70	pIC50 (HCC1954 cells): > 7.70
CCC(C)[C@@H]1NC(=O)CN(C)C(=O)[C@@H](Cc2ccccc2)N(C)C(=O)[C@H](C)NC(=O)[C@@H](CC(C)C)OC(=O)/C(C)=C/CCCOC(=O)[C@H](CCCCN)NC1=O (some centres unmarked) [Compound 60] ([dHica]A[dNMeF][Sar][Ile(3ξ)]K; linker N-C via X9)	< 5.00	
C/C=C(\C)[C@H]1OC(=O)[C@@H](C)NC(=O)[C@H]([C@H](C)CC)NC(=O)CN(C)C(=O)[C@@H](Cc2ccc(Cl)cc2)N(C)C(=O)[C@H](C)NC(=O)[C@@H](CC(C)C)OC(=O)/C(C)=C/C[C@H](OCSC)[C@@H]1C [Compound 61]	> 7.70	

— patent US10472395B2, “Cyclic peptide analogs and conjugates thereof” (Sirenas LLC, priority 2015, dated 2019)
